Reference: patent publication US20020150975A1 (priority 2000, published 2002)

Test system: SCLC cells
Format: cell-based, human

CN1CCCC1c1cccnc1 (stereo not drawn) [nicotine]
effect on proliferation / rate of growth of SCLC cells: increase the rate of growth

alpha-bungarotoxin
effect on proliferation / rate of growth of SCLC cells: slow down or suppress proliferation

alpha-cobratoxin
effect on proliferation / rate of growth of SCLC cells: slow down or suppress proliferation
